The experiment concerns the target T1, hTRPM8 (Homo sapiens, UniProt Q7Z2W7).
T1 construct: expressed in transfected cells
The experiment can be described thus: Assay on TRPM8 modulators: calcium imaging (Fluo-4, Flexstation) in HEK293 cell line stably expressing hTRPM8. It counts as cell-based. The conditions noted are these: HEK293 cells stably expressing hTRPM8; calcium influx, Fluo-4, Flexstation 3; sigmoidal dose-response fit. The essentials:
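HEK293 cells stably expressing hTRPM8 were loaded with Fluo-4 AM plus probenecid and kept in HEPES buffer, pH 7.4. Calcium influx to serially diluted compounds was recorded for 120 s. Maximal activation was referenced to solvent control and 31.6 μM menthol, with EC values from sigmoidal dose-response fits.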
T1 sequence (Q7Z2W7 whole entry): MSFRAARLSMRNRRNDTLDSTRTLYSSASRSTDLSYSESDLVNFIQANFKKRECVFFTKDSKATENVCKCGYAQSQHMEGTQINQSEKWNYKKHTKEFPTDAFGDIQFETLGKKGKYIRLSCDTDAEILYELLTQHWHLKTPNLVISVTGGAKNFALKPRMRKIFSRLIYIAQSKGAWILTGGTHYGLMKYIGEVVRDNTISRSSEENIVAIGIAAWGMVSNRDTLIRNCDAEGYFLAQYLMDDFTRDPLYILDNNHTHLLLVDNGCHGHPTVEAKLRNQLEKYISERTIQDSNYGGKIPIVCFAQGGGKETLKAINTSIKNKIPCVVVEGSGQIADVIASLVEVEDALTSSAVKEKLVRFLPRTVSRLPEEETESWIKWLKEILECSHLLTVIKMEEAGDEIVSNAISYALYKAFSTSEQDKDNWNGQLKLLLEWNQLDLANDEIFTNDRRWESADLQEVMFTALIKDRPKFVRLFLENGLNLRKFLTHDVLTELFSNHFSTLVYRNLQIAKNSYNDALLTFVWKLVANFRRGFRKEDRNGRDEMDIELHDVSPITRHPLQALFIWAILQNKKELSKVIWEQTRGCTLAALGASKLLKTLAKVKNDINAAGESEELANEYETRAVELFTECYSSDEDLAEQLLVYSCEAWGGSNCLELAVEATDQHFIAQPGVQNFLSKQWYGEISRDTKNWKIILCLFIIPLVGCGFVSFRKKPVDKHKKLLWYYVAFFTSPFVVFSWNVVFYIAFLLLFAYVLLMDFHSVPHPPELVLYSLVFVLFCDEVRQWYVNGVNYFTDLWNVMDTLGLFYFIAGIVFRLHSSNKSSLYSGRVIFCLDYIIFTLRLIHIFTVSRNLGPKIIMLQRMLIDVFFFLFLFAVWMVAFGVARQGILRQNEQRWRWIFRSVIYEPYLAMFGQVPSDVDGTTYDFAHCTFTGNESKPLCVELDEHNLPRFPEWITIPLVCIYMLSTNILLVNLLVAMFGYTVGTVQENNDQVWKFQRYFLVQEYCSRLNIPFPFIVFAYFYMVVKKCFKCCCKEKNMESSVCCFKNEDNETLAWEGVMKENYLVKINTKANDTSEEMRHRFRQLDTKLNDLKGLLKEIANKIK
As for `CC=C(CC)C(=O)N1CCCCC1c1nc(-c2ccccc2)c[nH]1` (centres unmarked) [Compound 154, 2-ethyl-1-(2-(4-phenyl-1H-imidazol-2-yl)piperidin-1-yl)but-2-en-1-one], the EC50 was in the range of 50 to 300 nM.
To `CCC(CC)C(=O)N1CCCCC1c1nc(-c2ccccc2)c[nH]1` (centres unmarked) [Compound 155, 2-ethyl-1-(2-(4-phenyl-1H-imidazol-2-yl)piperidin-1-yl)butan-1-one] belongs 50 to 300 nM; to `CSC(C)C(=O)N1CCCCC1c1ncc(-c2ccc(C#N)c(F)c2)[nH]1` (centres unmarked) [Compound 156, 2-fluoro-4-(2-(1-(2-(methylthio)propanoyl)piperidin-2-yl)-1H-imidazol-5-yl)benzonitrile], less than 50 nM; to `Cc1ccc(-c2cnc(C3CCCCN3C(=O)C(C)S)[nH]2)cc1` (centres unmarked) [Compound 157, 2-mercapto-1-(2-(5-(p-tolyl)-1H-imidazol-2-yl)piperidin-1-yl)propan-1-one], 50 to 300 nM.
As for `CCC(OC)C(=O)N1CCCCC1c1nc(-c2ccccc2)c[nH]1` (centres unmarked) [Compound 158, 2-methoxy-1-(2-(4-phenyl-1H-imidazol-2-yl)piperidin-1-yl)butan-1-one], the figure is 300 to 1000 nM; as for `COC(C)C(=O)N1CCCCC1c1nc(-c2ccccc2)c[nH]1` (centres unmarked) [Compound 159, 2-methoxy-1-(2-(4-phenyl-1H-imidazol-2-yl)piperidin-1-yl)propan-1-one], 1000 to 35000 nM.
As for `COC(C)C(=O)N1CCCCC1c1ncc(-c2ccc(C)cc2)[nH]1` (centres unmarked) [Compound 160, 2-methoxy-1-(2-(5-(p-tolyl)-1H-imidazol-2-yl)piperidin-1-yl)propan-1-one], the figure is 50 to 300 nM; as for `CCC(C)C(=O)N1CCCCC1c1nc(-c2ccccc2)c[nH]1` (centres unmarked) [Compound 161, 2-methyl-1-(2-(4-phenyl-1H-imidazol-2-yl)piperidin-1-yl)butan-1-one], 50 to 300 nM.
With `CC(C)C(=O)N1CCCCC1c1nc(-c2ccccc2)c[nH]1` (centres unmarked) [Compound 162, 2-methyl-1-(2-(4-phenyl-1H-imidazol-2-yl)piperidin-1-yl)propan-1-one], the 50% effective concentration (EC50) lay within 300 to 1000 nM.
As for `CC[C@H](C)C(=O)N1CCCC[C@@H]1c1ncc(-c2ccc(C)cc2)[nH]1` [Compound 165, (S)-2-methyl-1-((R)-2-(5-(p-tolyl)-1H-imidazol-2-yl)piperidin-1-yl)butan-1-one], the figure is less than 50 nM; as for `CC(=O)C(C)C(=O)N1CCCCC1c1ncc(-c2ccc(C)cc2)[nH]1` (centres unmarked) [Compound 167, 2-methyl-1-(2-(5-(p-toly)-1H-imidazol-2-yl)piperidin-1-yl)butane-1,3-dione], 50 to 300 nM.
To `CCCC(C)C(=O)N1CCCCC1c1ncc(-c2ccc(C)cc2)[nH]1` (centres unmarked) [Compound 168, 2-methyl-1-(2-(5-(p-tolyl)-1H-imidazol-2-yl)piperidin-1-yl)pentan-1-one] belongs less than 50 nM; to `C=C(C)C(=O)N1CCCCC1c1ncc(-c2ccc(C)cc2)[nH]1` (centres unmarked) [Compound 169, 2-methyl-1-(2-(5-(p-tolyl)-1H-imidazol-2-yl)piperidin-1-yl)prop-2-en-1-one], less than 50 nM.
As for `Cc1ccc(-c2cnc(C3CCCCN3C(=O)C(C)C)[nH]2)cc1` (centres unmarked) [Compound 170, 2-methyl-1-(2-(5-(p-tolyl)-1H-imidazol-2-yl)piperidin-1-yl)propan-1-one], the figure is less than 50 nM.
In the case of `CSC(C)(C)C(=O)N1CCCCC1c1ncc(-c2ccc(C)cc2)[nH]1` (centres unmarked) [Compound 171, 2-methyl-2-(methylthio)-1-(2-(5-(p-tolyl)-1H-imidazol-2-yl)piperidin-1-yl)propan-1-one], the EC50 was less than 50 nM.
For `CSCC(C)C(=O)N1CCCCC1c1nc(-c2ccccc2)c[nH]1` (centres unmarked) [Compound 172], the EC50 lay in the range of 300 to 1000 nM.
`C=C(CC)C(=O)N1CCCCC1c1ncc(-c2ccc(C)cc2)[nH]1` (centres unmarked) [Compound 173, 2-methylene-1-(2-(5-(p-toly)-1H-imidazol-2-yl)piperidin-1-yl)butan-1-one]: the EC50 was less than 50 nM.
Take `CSC(C)C(=O)N1CCCCC1c1nc(-c2cccc(C#N)c2)c[nH]1` (centres unmarked) [Compound 174, 3-(2-(1-(2-(methylthio)propanoyl)piperidin-2-yl)-1H-imidazol-4-yl)benzonitrile]: the EC50 lay within 50 to 300 nM.
As for `CC(C(=O)N1CCCCC1c1nc(-c2ccccc2)c[nH]1)C(F)(F)F` (centres unmarked) [Compound 175, 3,3,3-trifluoro-2-methyl-1-(2-(4-phenyl-1H-imidazol-2-yl)piperidin-1-yl)propan-1-one], the figure is 50 to 300 nM.
To `O=C(CC(F)(F)C(F)(F)F)N1CCCCC1c1nc(-c2ccccc2)c[nH]1` (centres unmarked) [Compound 176, 3,3,4,4,4-pentafluoro-1-(2-(4-phenyl-1H-imidazol-2-yl)piperidin-1-yl)butan-1-one] belongs 1000 to 35000 nM.
As for `CC(F)(F)CC(=O)N1CCCCC1c1nc(-c2ccccc2)c[nH]1` (centres unmarked) [Compound 177, 3,3-difluoro-1-(2-(4-phenyl-1H-imidazol-2-yl)piperidin-1-yl)butan-1-one], the figure is 1000 to 35000 nM; as for `CSC(C)C(=O)N1CCCCC1c1ncc(-c2ccc(C#N)cc2F)[nH]1` (centres unmarked) [Compound 178, 3-fluoro-4-(2-(1-(2-(methylthio)propanoyl)piperidin-2-yl)-1H-imidazol-5-yl)benzonitrile], less than 50 nM.
`CC(C)=CC(=O)N1CCCCC1c1nc(-c2ccccc2)c[nH]1` (centres unmarked) [Compound 179, 3-methyl-1-(2-(4-phenyl-1H-imidazol-2-yl)piperidin-1-yl)but-2-en-1-one]: the 50% effective concentration (EC50) is 1000 to 35000 nM.
As for `CC(C)CC(=O)N1CCCCC1c1nc(-c2ccccc2)c[nH]1` (centres unmarked) [Compound 180, 3-methyl-1-(2-(4-phenyl-1H-imidazol-2-yl)piperidin-1-yl)butan-1-one], the figure is 1000 to 35000 nM; as for `CSC(C)C(=O)N1CCCCC1c1nc(-c2ccc(C#N)cc2)c[nH]1` (centres unmarked) [Compound 181, 4-(2-(1-(2-(methylthio)propanoyl)piperidin-2-yl)-1H-imidazol-4-yl)benzonitrile], less than 50 nM.
As for `CSC(C)C(=O)N1CCCCC1c1ncc(-c2ccc(C=O)cc2)[nH]1` (centres unmarked) [Compound 182, 4-(2-(1-(2-(methylthio)propanoyl)piperidin-2-yl)-1H-imidazol-5-yl)benzaldehyde], the figure is less than 50 nM.
`CC(CC(F)(F)F)C(=O)N1CCCCC1c1nc(-c2ccccc2)c[nH]1` (centres unmarked) [Compound 183, 4,4,4-trifluoro-2-methyl-1-(2-(4-phenyl-1H-imidazol-2-yl)piperidin-1-yl)butan-1-one]: the EC50 is 300 to 1000 nM.
As for `O=C(N1CCCCC1c1nc(-c2ccccc2)c[nH]1)C12CC(C1)C2` (centres unmarked) [Compound 184, bicyclo[1.1.1]pentan-1-yl(2-(4-phenyl-1H-imidazol-2-yl)piperidin-1-yl)methanone], the figure is 300 to 1000 nM; as for `O=C(C1CCC1)N1CCCCC1c1ncc(-c2cccc(F)c2)[nH]1` (centres unmarked) [Compound 185, cyclobutyl(2-(5-(3-fluorophenyl)-1H-imidazol-2-yl)piperdin-1-yl)methanone], 300 to 1000 nM.
In the case of `O=C(C1CCCC1)N1CCCCC1c1nc(-c2ccccc2)c[nH]1` (centres unmarked) [Compound 186, cyclopentyl(2-(4-phenyl-1H-imidazol-2-yl)piperidin-1-yl)methanone], the EC50 was 300 to 1000 nM.
As for `O=C(C1CC1)N1CCCCC1c1nc(-c2ccccc2)c[nH]1` (centres unmarked) [Compound 187, cyclopropyl(2-(4-phenyl-1H-imidazol-2-yl)piperidin-1-yl)methanone], the figure is 1000 to 35000 nM; as for `COC(=O)c1ccc(-c2cnc(C3CCCCN3C(=O)C(C)SC)[nH]2)cc1` (centres unmarked) [Compound 188, methyl 4-(2-(1-(2-(methylthio)propanoyl)piperidin-2-yl)-1H-imidazol-5-yl)benzoate], 50 to 300 nM; as for `CSC(C)C(=O)N1CCCCC1c1nc(-c2ccc(S(=O)(=O)NCCO)cc2)c[nH]1` (centres unmarked) [Compound 189, N-(2-hydroxyethyl)-4-(2-(1-(2-(methylthio)propanoyl)piperidin-2-yl)-1H-imidazol-4-yl)benzenesulfonamide], 1000 to 35000 nM.
As for `CSC(C)C(=O)N1CCCCC1c1ncc(-c2cccc([N+](=O)[O-])c2)[nH]1` (centres unmarked) [Compound 190, 2-(methylthio)-1-(2-(5-(3-nitrophenyl)-1H-imidazol-2-yl)piperidin-1-yl)propan-1-one], the concentration for a half-maximal effect (EC50) is less than 50 nM.
To `CSC(C)C(=O)N1CCCCC1c1nc(-c2ccc(NS(C)(=O)=O)cc2)c[nH]1` (centres unmarked) [Compound 191, N-(4-(2-(1-(2-(methylthio)propanoyl)piperidin-2-yl)-1H-imidazol-4-yl)phenyl)methanesulfonamide] belongs 1000 to 35000 nM.
As for `CSC(C)C(=O)N1CCCCC1c1ncc(-c2ccc([N+](=O)[O-])cc2)[nH]1` (centres unmarked) [Compound 192, 2-(methylthio)-1-(2-(5-(4-nitrophenyl)-1H-imidazol-2-yl)piperidin-1-yl)propan-1-one], the figure is less than 50 nM.
To `Cc1ccc(-c2cnc(C3CCCCN3C(=O)C3CC3(C)C)[nH]2)cc1` (centres unmarked) [Compound 193, (2,2-dimethylcyclopropyl)(2-(5-(p-toly)-1H-imidazol-2-yl)piperidin-1-yl)methanone] belongs less than 50 nM; to `CCC(C)C(=O)N1CCCCC1c1ncc(Br)[nH]1` (centres unmarked) [Compound 194, 1-(2-(5-bromo-1H-imidazol-2-yl)piperidin-1-yl)-2-methylbutan-1-one], 1000 to 35000 nM; to `CCC(C)C(=O)N1CCCCC1c1ncc(-c2ccc(Cl)cc2)[nH]1` (centres unmarked) [Compound 195, 1-(2-(5-(4-chlorophenyl)-1H-imidazol-2-yl)piperidin-1-yl)-2-methylbutan-1-one], less than 50 nM.
As to `CSC(C)C(=O)N1CCCCC1c1ncc(-c2ccc(CC#N)cc2)[nH]1` (centres unmarked) [Compound 196, 2-(4-(2-(1-(2-(methylthio)propanoyl)piperidin-2-yl)-1H-imidazol-5-yl)phenyl)acetonitrile], the EC50 was less than 50 nM.
As for `CCC(C)C(=O)N1CCCCC1c1ncc(-c2ccc(CC#N)cc2)[nH]1` (centres unmarked) [Compound 197, 2-(4-(2-(1-(2-methylbutanoyl)piperidin-2-yl)-1H-imidazol-5-yl)phenyl)acetonitrile], the EC50 is less than 50 nM.

The values above are taken from patent publication US12528801B2 (Givaudan SA, priority 2019, dated 2026).
